Laboratory results reported in article PMC3726442 (PLoS ONE, 2013).

What was measured:
[1] = Plasma concentrations of tamoxifen and its metabolites in breast cancer patients on tamoxifen, by HPLC-tandem mass spectrometry
Text: One hundred and thirty five Caucasian patients of Spanish descent recently diagnosed with BC were recruited from the center Fundación Tejerina-Centro de Patología de la Mama (Madrid). Premenopausal and postmenopausal women were enrolled when started on TAM as standard adjuvant therapy after undergoing primary surgery, radiation and adjuvant chemotherapy. Patients were excluded if they had started TAM therapy simultaneously with either adjuvant chemotherapy or adjuvant radiation therapy (or both) or if they were undergoing other adjuvant endocrine therapies. Patients who were pregnant or breast-feeding were also excluded from the study. […] Blood samples were collected within 3 to 60 months of initiating TAM treatment.
Venous blood was collected from all 135 subjects before taking their daily 20- mg dose of TAM. Ten milliliters of heparin plasma were separated by centrifugation and immediately stored at −20°C until analysis. In addition, one milliliter of an EDTA blood sample was taken for subsequent DNA extraction and genotyping. DNA was isolated from peripheral leukocytes using a QIAamp DNA Blood Mini Kit® (Qiagen, Madrid, Spain) according to the manufacturer’s instructions. The DNA concentration was determined and adjusted to 2–20 ng/ µL.
TAM and its metabolites were separated and quantified by high-pressure liquid chromatography-tandem mass spectrometry using an Agilent HPLC 1200 system. HPLC experiments were performed using a binary pump G1312A, a G1316A column oven, G1379B degasser and an automatic injector H-ALS G1367B. Mobile phase A and phase B consisted of 0.1% formic acid in water and acetonitrile, respectively. Mobile phases A and B were pumped through a ZORBAX Eclipse XDB-C18 column (150 mm×2.1 mm I.D., 3.5 µm, Agilent USA) at a flow rate of 0.2 mL/min using the gradient shown in Table 1. Separation was conducted at 30°C. 15- µL aliquots were injected and the autosampler needle was rinsed in acetonitrile/water solution (1∶1). The total run time was 20 min. During the first 4.0 and last 2.0 min, the eluate was removed using a divert valve to avoid endogenous compounds entering the mass spectrometer.
As a detector, we used an A 6410 Triple Quadrupole mass spectrometer (Agilent Technologies, USA) equipped with a heated electrospray ionization source (Thermo Fisher Scientific, Waltham, MA, USA) operating in positive ion mode. For quantification, multiple reaction monitoring (MRM) chromatograms were acquired using Mass Hunter software version B.01.04 (Agilent Technologies, USA). Positive ions were created at atmospheric pressure. Quadrupoles operated at unit resolution (0.7 Da).
A 300- µL volume of 1% formic acid in acetonitrile containing internal standards was added to a 100- µL serum aliquot. After vortexing and centrifugation, the clear supernatant was transferred to a HybridSPE column (Supelco) and the eluents stored at 2–8°C until analysis. Samples were analyzed in triplicate.
Descriptive statistics were calculated using standard methods. Metabolic ratios were calculated as the concentration of substrate/concentration of metabolite. The non-normal distribution of data was confirmed by the Kolmogorov-Smirnov test. Levels of TAM, metabolites and ratios between genotype groups were compared using Wilcoxon-Mann-Whitney or Kruskal-Wallis tests. All statistical tests (two-sided) were performed using SPSS software (version 18.0 SPSS, Chicago, IL). Significance was set at a p<0.05.

estrogen receptor = settings: cited from earlier work
[2] = cited from earlier work
[3] = all samples analyzed, n = 125, before daily 20 mg TAM dose

4-hydroxy-tamoxifen [4-OH-tamoxifen]
median plasma concentration [1, 3]: 6.75 ng/mL

CC/C(=C(\c1ccc(O)cc1)c1ccc(OCCNC)cc1)c1ccccc1 [Endoxifen, N-desmethyl-4-hydroxy-tamoxifen]
estrogen receptor affinity relative to TAM (estrogen receptor): 100 fold | endoxifen levels in wt/wt CYP2D6 relative to v/v CYP2D6 patients ([1]; CYP2D6 genotype subgroups, Figure 1): over two-fold | mean plasma concentration (±SD) [1, 3]: 24.75 ± 19.37 ng/mL | median plasma concentration [1, 3]: 19.11 ng/mL | mean concentration relative to the 4OH-TAM mean concentration ([1]; all samples, n = 125): almost three times | plasma concentration, mean ±SD ([1]; genotype CYP2D6 I/I, n = 1): 9.53 ± 0.00 ng/mL | plasma concentration, median ([1]; genotype CYP2D6 I/I, n = 1): 9.53 ng/mL | plasma concentration, range ([1]; genotype CYP2D6 I/I, n = 1): (9.53–9.53) ng/mL | plasma concentration, mean ±SD ([1]; genotype CYP2D6 I/P, n = 8): 12.01 ± 5.84 ng/mL | plasma concentration, median ([1]; genotype CYP2D6 I/P, n = 8): 10.00 ng/mL | plasma concentration, range ([1]; genotype CYP2D6 I/P, n = 8): (4.46–21.02) ng/mL | plasma concentration, mean ±SD ([1]; genotype CYP2D6 P/P, n = 2): 8.71 ± 6.41 ng/mL | plasma concentration, median ([1]; genotype CYP2D6 P/P, n = 2): 8.71 ng/mL | plasma concentration, range ([1]; genotype CYP2D6 P/P, n = 2): (4.18–13.24) ng/mL | plasma concentration, mean ±SD ([1]; genotype CYP2D6 wt/I, n = 4): 26.87 ± 17.31 ng/mL | plasma concentration, median ([1]; genotype CYP2D6 wt/I, n = 4): 20.64 ng/mL | plasma concentration, range ([1]; genotype CYP2D6 wt/I, n = 4): (14.01–52.20) ng/mL | plasma concentration, mean ±SD ([1]; genotype CYP2D6 wt/P, n = 26): 23.76 ± 25.21 ng/mL | plasma concentration, median ([1]; genotype CYP2D6 wt/P, n = 26): 14.57 ng/mL | plasma concentration, range ([1]; genotype CYP2D6 wt/P, n = 26): (5.01–107.10) ng/mL | plasma concentration, mean ±SD ([1]; genotype CYP2D6 wt/wt, n = 78): 26.47 ± 17.89 ng/mL | plasma concentration, median ([1]; genotype CYP2D6 wt/wt, n = 78): 21.21 ng/mL | plasma concentration, range ([1]; genotype CYP2D6 wt/wt, n = 78): (4.03–95.87) ng/mL | plasma concentration, mean ±SD ([1]; genotype CYP2D6 wtxN/P, n = 2): 36.09 ± 32.08 ng/mL | plasma concentration, median ([1]; genotype CYP2D6 wtxN/P, n = 2): 36.09 ng/mL | plasma concentration, range ([1]; genotype CYP2D6 wtxN/P, n = 2): (13.40–58.77) ng/mL | plasma concentration, mean ±SD ([1]; genotype CYP3A4 wt/*1B, n = 3): 22.31 ± 10.86 ng/mL | plasma concentration, median ([1]; genotype CYP3A4 wt/*1B, n = 3): 26.69 ng/mL | plasma concentration, range ([1]; genotype CYP3A4 wt/*1B, n = 3): (9.95–30.30) ng/mL | plasma concentration, mean ±SD ([1]; genotype CYP3A4 wt/*3, n = 2): 49.15 ± 21.86 ng/mL | plasma concentration, median ([1]; genotype CYP3A4 wt/*3, n = 2): 49.15 ng/mL | plasma concentration, range ([1]; genotype CYP3A4 wt/*3, n = 2): (33.69–64.61) ng/mL | plasma concentration, mean ±SD ([1]; genotype CYP3A4 wt/*17, n = 9): 19.86 ± 24.88 ng/mL | plasma concentration, median ([1]; genotype CYP3A4 wt/*17, n = 9): 11.94 ng/mL | plasma concentration, range ([1]; genotype CYP3A4 wt/*17, n = 9): (4.46–84.57) ng/mL | plasma concentration, mean ±SD ([1]; genotype CYP3A4 wt/wt, n = 107): 24.80 ± 19.03 ng/mL | plasma concentration, median ([1]; genotype CYP3A4 wt/wt, n = 107): 19.12 ng/mL | plasma concentration, range ([1]; genotype CYP3A4 wt/wt, n = 107): (4.03–107.10) ng/mL | plasma concentration, mean ±SD ([1]; genotype CYP3A5 *3/*3, n = 117): 25.10 ± 19.66 ng/mL | plasma concentration, median ([1]; genotype CYP3A5 *3/*3, n = 117): 19.12 ng/mL | plasma concentration, range ([1]; genotype CYP3A5 *3/*3, n = 117): (4.03–107.10) ng/mL | plasma concentration, mean ±SD ([1]; genotype CYP3A5 wt/*3, n = 6): 14.14 ± 7.56 ng/mL | plasma concentration, median ([1]; genotype CYP3A5 wt/*3, n = 6): 13.61 ng/mL | plasma concentration, range ([1]; genotype CYP3A5 wt/*3, n = 6): (5.40–23.01) ng/mL | plasma concentration, mean ±SD ([1]; genotype SULT1A1 *2/*2, n = 15): 28.68 ± 24.18 ng/mL | plasma concentration, median ([1]; genotype SULT1A1 *2/*2, n = 15): 19.82 ng/mL | plasma concentration, range ([1]; genotype SULT1A1 *2/*2, n = 15): (4.57–95.87) ng/mL | plasma concentration, mean ±SD ([1]; genotype SULT1A1 wt/*2, n = 46): 26.59 ± 19.97 ng/mL | plasma concentration, median ([1]; genotype SULT1A1 wt/*2, n = 46): 22.58 ng/mL | plasma concentration, range ([1]; genotype SULT1A1 wt/*2, n = 46): (4.18–107.10) ng/mL | plasma concentration, mean ±SD ([1]; genotype SULT1A1 wt/wt, n = 60): 22.43 ± 17.79 ng/mL | plasma concentration, median ([1]; genotype SULT1A1 wt/wt, n = 60): 17.47 ng/mL | plasma concentration, range ([1]; genotype SULT1A1 wt/wt, n = 60): (4.03–89.98) ng/mL | plasma concentration, mean ±SD ([1]; genotype SULT1A2 *2/*2, n = 16): 26.59 ± 23.20 ng/mL | plasma concentration, median ([1]; genotype SULT1A2 *2/*2, n = 16): 20.76 ng/mL | plasma concentration, range ([1]; genotype SULT1A2 *2/*2, n = 16): (4.18–95.87) ng/mL | plasma concentration, mean ±SD ([1]; genotype SULT1A2 *2/*3, n = 13): 34.61 ± 20.35 ng/mL | plasma concentration, median ([1]; genotype SULT1A2 *2/*3, n = 13): 32.02 ng/mL | plasma concentration, range ([1]; genotype SULT1A2 *2/*3, n = 13): (8.94–74.06) ng/mL | plasma concentration, mean ±SD ([1]; genotype SULT1A2 *3/*3, n = 5): 27.34 ± 21.30 ng/mL | plasma concentration, median ([1]; genotype SULT1A2 *3/*3, n = 5): 21.02 ng/mL | plasma concentration, range ([1]; genotype SULT1A2 *3/*3, n = 5): (12.13–64.61) ng/mL | plasma concentration, mean ±SD ([1]; genotype SULT1A2 wt/*2, n = 33): 28.84 ± 23.78 ng/mL | plasma concentration, median ([1]; genotype SULT1A2 wt/*2, n = 33): 23.22 ng/mL | plasma concentration, range ([1]; genotype SULT1A2 wt/*2, n = 33): (4.46–107.10) ng/mL | plasma concentration, mean ±SD ([1]; genotype SULT1A2 wt/*3, n = 16): 23.99 ± 15.32 ng/mL | plasma concentration, median ([1]; genotype SULT1A2 wt/*3, n = 16): 19.02 ng/mL | plasma concentration, range ([1]; genotype SULT1A2 wt/*3, n = 16): (7.80–51.61) ng/mL | plasma concentration, mean ±SD ([1]; genotype SULT1A2 wt/wt, n = 38): 17.21 ± 11.79 ng/mL | plasma concentration, median ([1]; genotype SULT1A2 wt/wt, n = 38): 14.78 ng/mL | plasma concentration, range ([1]; genotype SULT1A2 wt/wt, n = 38): (4.03–58.77) ng/mL | plasma concentration, mean ±SD ([1]; genotype SULT1E1 *2/*2, n = 5): 16.05 ± 8.07 ng/mL | plasma concentration, median ([1]; genotype SULT1E1 *2/*2, n = 5): 20.60 ng/mL | plasma concentration, range ([1]; genotype SULT1E1 *2/*2, n = 5): (6.74–23.01) ng/mL | plasma concentration, mean ±SD ([1]; genotype SULT1E1 wt/*2, n = 28): 24.30 ± 20.87 ng/mL | plasma concentration, median ([1]; genotype SULT1E1 wt/*2, n = 28): 18.04 ng/mL | plasma concentration, range ([1]; genotype SULT1E1 wt/*2, n = 28): (4.18–95.87) ng/mL | plasma concentration, mean ±SD ([1]; genotype SULT1E1 wt/wt, n = 88): 25.41 ± 19.51 ng/mL | plasma concentration, median ([1]; genotype SULT1E1 wt/wt, n = 88): 19.12 ng/mL | plasma concentration, range ([1]; genotype SULT1E1 wt/wt, n = 88): (4.03–107.10) ng/mL | mean plasma concentration (±SD) ([1]; patients not receiving CYP2D6 inhibitors): 25.30 ± 19.39 ng/mL | mean plasma concentration (±SD) ([1]; patients receiving CYP2D6 inhibitors concomitantly with TAM): 15.55 ± 17.77 ng/mL | serum levels relative to 4OH-TAM [2]: 10 fold
